The values that follow come from US8410117B2, “Imidazopyrimidine derivatives” (Hoffmann-La Roche Inc., priority 2010, dated 2013).

The structures appear in SMILES notation.

The experiment deals with T1, human PDE10A (Homo sapiens, UniProt Q9Y233).
T1 construct: The human PDE10A full length assay; purchased Enzo Life Science, Lausen, Switzerland SE-534
T1 sequence (Q9Y233 1-779 isoform Q9Y233-1): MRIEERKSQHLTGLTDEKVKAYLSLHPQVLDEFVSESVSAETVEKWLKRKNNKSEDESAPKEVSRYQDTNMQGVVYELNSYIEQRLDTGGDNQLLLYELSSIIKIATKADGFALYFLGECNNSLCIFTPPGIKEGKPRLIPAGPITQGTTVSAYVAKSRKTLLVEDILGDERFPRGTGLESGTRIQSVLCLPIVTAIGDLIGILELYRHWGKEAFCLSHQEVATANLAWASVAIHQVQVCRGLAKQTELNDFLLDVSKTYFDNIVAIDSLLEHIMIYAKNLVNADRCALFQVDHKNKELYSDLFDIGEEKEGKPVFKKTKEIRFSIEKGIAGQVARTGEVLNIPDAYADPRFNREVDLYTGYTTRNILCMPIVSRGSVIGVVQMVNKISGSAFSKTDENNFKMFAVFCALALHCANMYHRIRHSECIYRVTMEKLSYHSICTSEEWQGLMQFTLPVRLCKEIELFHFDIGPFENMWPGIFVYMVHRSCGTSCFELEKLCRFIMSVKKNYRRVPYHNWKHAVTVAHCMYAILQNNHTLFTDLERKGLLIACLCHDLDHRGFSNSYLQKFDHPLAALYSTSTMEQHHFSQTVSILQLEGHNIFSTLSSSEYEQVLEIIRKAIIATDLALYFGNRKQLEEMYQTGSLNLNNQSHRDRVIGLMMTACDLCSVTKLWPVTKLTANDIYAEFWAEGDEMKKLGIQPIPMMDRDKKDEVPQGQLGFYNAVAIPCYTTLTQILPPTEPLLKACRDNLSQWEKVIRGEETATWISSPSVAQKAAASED
The experiment in a line: human PDE10A full length Scintillation Proximity Assay (SPA). The class given is biochemical. As to conditions: 50 nM cGMP and 50 nM [3H]-cGMP, 20 minutes at room temperature; read-out: PDE10A inhibition IC50. A digest of the protocol:
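Full-length enzyme at 3.75 ng/well in 20 mM HEPES pH 7.5, 10 mM MgCl2, 0.05 mg/ml BSA, with 50 nM cGMP plus 50 nM [3H]-cGMP substrate, 20 min at room temperature. Stopped with YSi-SPA beads in zinc sulphate and counted by scintillation. IC50 from inhibitor concentration series; no-enzyme wells define background.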
(In general: Scintillation proximity formats need no separation of bound from free tracer.)
For the compound `Cn1ncc(C(=O)NC2(C)COC2)c1C(=O)Nc1ccn2cc(-c3ccccc3)nc2n1` [Example 134, 1-methyl-N4-(3-methyloxetan-3-yl)-N5-(2-phenylimidazo[1,2-a]pyrimidin-7-yl)-1H-pyrazole-4,5-dicarboxamide], the IC50 (commonly the concentration at which inhibition is half-maximal) amounted to 57.6 nM.

Take `CN(Cc1ccccn1)C(=O)c1cnn(C)c1C(=O)Nc1ccn2cc(-c3ccccc3)nc2n1` [Example 135, N4,1-dimethyl-N5-(2-phenylimidazo[1,2-a]pyrimidin-7-yl)-N4-(pyridin-2-ylmethyl)-1H-pyrazole-4,5-dicarboxamide]: the IC50 stood at 64.1 nM. The figure for `CN(Cc1ccc(Br)cn1)C(=O)c1cnn(C)c1C(=O)Nc1ccn2cc(-c3ccccc3)nc2n1` [Example 136, N4-((5-bromopyridin-2-yl)methyl)-N4,1-dimethyl-N5-(2-phenylimidazo[1,2-a]pyrimidin-7-yl)-1H-pyrazole-4,5-dicarboxamide] is 99.7 nM; for `Cn1ncc(C(=O)N2CCOCC2c2cccnc2)c1C(=O)Nc1ccn2cc(-c3ccccc3)nc2n1` (stereo not shown) [Example 137, 1-methyl-N-(2-phenylimidazo[1,2-a]pyrimidin-7-yl)-4-(3-(pyridin-3-yl)morpholine-4-carbonyl)-1H-pyrazole-5-carboxamide] it is 117 nM; for `Cn1ncc(C(=O)NC(C)(C)C)c1C(=O)Nc1ccn2cc(-c3ccccc3)nc2n1` [Example 138, N4-tert-butyl-1-methyl-N5-(2-phenylimidazo[1,2-a]pyrimidin-7-yl)-1H-pyrazole-4,5-dicarboxamide] it is 130 nM.

Regarding `CC(NC(=O)c1cnn(C)c1C(=O)Nc1ccn2cc(-c3ccccc3)nc2n1)c1cccnc1` (stereo not shown) [Example 139, 1-methyl-N5-(2-phenylimidazo[1,2-a]pyrimidin-7-yl)-N4-(1-(pyridin-3-yl)ethyl)-1H-pyrazole-4,5-dicarboxamide], the IC50 was 148 nM.

Turning to `Cc1nn(C)c(CNC(=O)c2cnn(C)c2C(=O)Nc2ccn3cc(-c4ccccc4)nc3n2)c1[N+](=O)[O-]` [Example 140, N4-((1,3-dimethyl-4-nitro-1H-pyrazol-5-yl)methyl)-1-methyl-N5-(2-phenylimidazo[1,2-a]pyrimidin-7-yl)-1H-pyrazole-4,5-dicarboxamide], the IC50 was 151 nM. The figure for `O=C(Nc1ccn2cc(-c3ccccc3)nc2n1)c1nn[nH]c1C(=O)NC1COC1` [Example 141, N5-(oxetan-3-yl)-N4-(2-phenylimidazo[1,2-a]pyrimidin-7-yl)-1H-1,2,3-triazole-4,5-dicarboxamide] is 151 nM. Regarding `Cn1ncc(C(=O)NCc2ccc(C#N)nc2)c1C(=O)Nc1ccn2cc(-c3ccccc3)nc2n1` [Example 142, N4-((6-cyanopyridin-3-yl)methyl)-1-methyl-N5-(2-phenylimidazo[1,2-a]pyrimidin-7-yl)-1H-pyrazole-4,5-dicarboxamide], the IC50 was 152 nM. The figure for `Cc1cc(CNC(=O)c2cnn(C)c2C(=O)Nc2ccn3cc(-c4ccccc4)nc3n2)no1` [Example 143, 1-methyl-N-4-((5-methylisoxazol-3-yl)methyl)-N5-(2-phenylimidazo[1,2-a]pyrimidin-7-yl)-1H-pyrazole-4,5-dicarboxamide] is 162 nM.

For `Cn1ncc(C(=O)NCc2ccc(C(F)(F)F)nc2)c1C(=O)Nc1ccn2cc(-c3ccccc3)nc2n1` [Example 144, 1-methyl-N5-(2-phenylimidazo[1,2-a]pyrimidin-7-yl)-N-4-((6-(trifluoromethyl)pyridin-3-yl)methyl)-1H-pyrazole-4,5-dicarboxamide], the IC50 stood at 198 nM. With `Cn1ncc(C(=O)NC2(C#N)CC2)c1C(=O)Nc1ccn2cc(-c3ccccc3)nc2n1` [Example 145, N4-(1-cyanocyclopropyl)-1-methyl-N5-(2-phenylimidazo[1,2-a]pyrimidin-7-yl)-1H-pyrazole-4,5-dicarboxamide] the figure was 210 nM; with `Cn1ncc(C(=O)NCc2ccon2)c1C(=O)Nc1ccn2cc(-c3ccccc3)nc2n1` [Example 146, N4-(isoxazol-3-ylmethyl)-1-methyl-N5-(2-phenylimidazo[1,2-a]pyrimidin-7-yl)-1H-pyrazole-4,5-dicarboxamide], 212 nM; with `Cn1ncc(C(=O)NCc2nnn[nH]2)c1C(=O)Nc1ccn2cc(-c3ccccc3)nc2n1` [Example 147, N4-((1H-tetrazol-5-yl)methyl)-1-methyl-N5-(2-phenylimidazo[1,2-a]pyrimidin-7-yl)-1H-pyrazole-4,5-dicarboxamide], 235 nM.

As to `Cn1ncc(C(=O)NCc2ccncc2)c1C(=O)Nc1ccn2cc(-c3ccccc3)nc2n1` [Example 148, 1-methyl-N5-(2-phenylimidazo[1,2-a]pyrimidin-7-yl)-N4-(pyridin-4-ylmethyl)-1H-pyrazole-4,5-dicarboxamide], the IC50 is 244 nM. In the case of `Cn1ncc(C(=O)NCc2cn3ccccc3n2)c1C(=O)Nc1ccn2cc(-c3ccccc3)nc2n1` [Example 149, N4-(imidazo[1,2-a]pyridin-2-ylmethyl)-1-methyl-N5-(2-phenylimidazo[1,2-a]pyrimidin-7-yl)-1H-pyrazole-4,5-dicarboxamide], the concentration for half-maximal inhibition (IC50) amounted to 260 nM. The figure for `COCCNC(=O)c1[nH]nnc1C(=O)Nc1ccn2cc(-c3ccccc3)nc2n1` [Example 150, N5-(2-methoxyethyl)-N4-(2-phenylimidazo[1,2-a]pyrimidin-7-yl)-1H-1,2,3-triazole-4,5-dicarboxamide] is 263 nM.

Take `Cn1ncc(C(=O)NCc2nc(C#N)cs2)c1C(=O)Nc1ccn2cc(-c3ccccc3)nc2n1` [Example 151, N4-((4-cyanothiazol-2-yl)methyl)-1-methyl-N5-(2-phenylimidazo[1,2-a]pyrimidin-7-yl)-1H-pyrazole-4,5-dicarboxamide]: the IC50 stood at 288 nM. For the compound `Cn1ncc(C(=O)NCc2cc(C3CC3)[nH]n2)c1C(=O)Nc1ccn2cc(-c3ccccc3)nc2n1` [Example 152, N4-((5-cyclopropyl-1H-pyrazol-3-yl)methyl)-1-methyl-N5-(2-phenylimidazo[1,2-a]pyrimidin-7-yl)-1H-pyrazole-4,5-dicarboxamide], the IC50 came out at 302 nM.

`Cn1ncc(C(=O)NCc2cn3ccsc3n2)c1C(=O)Nc1ccn2cc(-c3ccccc3)nc2n1` [Example 153, N4-(imidazo[2,1-b]thiazol-6-ylmethyl)-1-methyl-N5-(2-phenylimidazo[1,2-a]pyrimidin-7-yl)-1H-pyrazole-4,5-dicarboxamide]: the half-maximal inhibitory concentration (IC50) turned out to be 305 nM.

`Cn1ncc(C(=O)NCc2ccc(Cl)nc2)c1C(=O)Nc1ccn2cc(-c3ccccc3)nc2n1` [Example 154, N4-((6-chloropyridin-3-yl)methyl)-1-methyl-N5-(2-phenylimidazo[1,2-a]pyrimidin-7-yl)-1H-pyrazole-4,5-dicarboxamide]: the IC50 was 315 nM. With `Cc1ccc(CNC(=O)c2cnn(C)c2C(=O)Nc2ccn3cc(-c4ccccc4)nc3n2)nc1` [Example 155, 1-methyl-N4-((5-methylpyridin-2-yl)methyl)-N5-(2-phenylimidazo[1,2-a]pyrimidin-7-yl)-1H-pyrazole-4,5-dicarboxamide] the figure was 346 nM. Regarding `CCCNC(=O)c1[nH]nnc1C(=O)Nc1ccn2cc(-c3ccccc3)nc2n1` [Example 156, N4-(2-phenylimidazo[1,2-a]pyrimidin-7-yl)-N5-propyl-1H-1,2,3-triazole-4,5-dicarboxamide], the IC50 was 359 nM. Consider `Cn1ccc(CNC(=O)c2cnn(C)c2C(=O)Nc2ccn3cc(-c4ccccc4)nc3n2)n1` [Example 157, 1-methyl-N-4-((1-methyl-1H-pyrazol-3-yl)methyl)-N5-(2-phenylimidazo[1,2-a]pyrimidin-7-yl)-1H-pyrazole-4,5-dicarboxamide], for which the IC50 was 389 nM.

On to `Cn1cc(Cl)c(CNC(=O)c2cnn(C)c2C(=O)Nc2ccn3cc(-c4ccccc4)nc3n2)n1` [Example 158, N4-((4-chloro-1-methyl-1H-pyrazol-3-yl)methyl)-1-methyl-N5-(2-phenylimidazo[1,2-a]pyrimidin-7-yl)-1H-pyrazole-4,5-dicarboxamide], for which the IC50 turned out to be 427 nM.

On to `O=C(Nc1ccn2cc(-c3ccccc3)nc2n1)c1nn[nH]c1C(=O)NC1CC1` [Example 159, N5-cyclopropyl-N4-(2-phenylimidazo[1,2-a]pyrimidin-7-yl)-1H-1,2,3-triazole-4,5-dicarboxamide], for which the IC50 amounted to 451 nM. With `CCc1cc(CNC(=O)c2cnn(C)c2C(=O)Nc2ccn3cc(-c4ccccc4)nc3n2)on1` [Example 160, N4-((3-ethylisoxazol-5-yl)methyl)-1-methyl-N5-(2-phenylimidazo[1,2-a]pyrimidin-7-yl)-1H-pyrazole-4,5-dicarboxamide] the figure was 459 nM; with `COc1ncccc1CNC(=O)c1cnn(C)c1C(=O)Nc1ccn2cc(-c3ccccc3)nc2n1` [Example 161, N4-((2-methoxypyridin-3-yl)methyl)-1-methyl-N5-(2-phenylimidazo[1,2-a]pyrimidin-7-yl)-1H-pyrazole-4,5-dicarboxamide], 547 nM. On to `Cn1ncc(C(=O)NCc2ccccc2)c1C(=O)Nc1ccn2cc(-c3ccccc3)nc2n1` [Example 162, N4-benzyl-1-methyl-N5-(2-phenylimidazo[1,2-a]pyrimidin-7-yl)-1H-pyrazole-4,5-dicarboxamide], for which the IC50 stood at 624 nM. With `Cc1nc(CNC(=O)c2cnn(C)c2C(=O)Nc2ccn3cc(-c4ccccc4)nc3n2)cs1` [Example 163, 1-methyl-N4-((2-methylthiazol-4-yl)methyl)-N5-(2-phenylimidazo[1,2-a]pyrimidin-7-yl)-1H-pyrazole-4,5-dicarboxamide] the figure was 636 nM; with `CCCn1ccc(CNC(=O)c2cnn(C)c2C(=O)Nc2ccn3cc(-c4ccccc4)nc3n2)n1` [Example 164, 1-methyl-N5-(2-phenylimidazo[1,2-a]pyrimidin-7-yl)-N4-((1-propyl-1H-pyrazol-3-yl)methyl)-1H-pyrazole-4,5-dicarboxamide], 725 nM.
